Converted amounts (≈) assume the structure as drawn.
What was measured:
[1] = system: HT-29; test: Cytotoxicity against human HT-29 cells; format: functional
[2] = system: MCF7; test: Cytotoxicity against human MCF7 cells; format: functional
[3] = system: A549; test: Cytotoxicity against human A549 cells; format: functional
[4] = system: Artemia; test: Toxicity in brine shrimp; format: organism-based; settings: in vivo
[5] = Cytotoxicity against mouse 9PS cells; format: functional
[6] = Cytotoxicity against human 9KB cells; format: functional; settings: read-out: ED50 (the source's name)
[7] = In vivo antitumor activity against mouse 3PS cells at 0.25 mg/kg, relative to control; format: functional
[8] = system: Agrobacterium tumefaciens; test: Antitumor activity against Agrobacterium tumefaciens-induced crown gall tumors in potato by disk test; format: functional

| Structure (SMILES) | EC50 ([1]; Homo sapiens, HT-29, read-out: ED50 (the source's name)) [µg/mL] | EC50 ([2]; Homo sapiens, MCF7, read-out: ED50 (the source's name)) [µg/mL] | EC50 ([3]; Homo sapiens, A549, read-out: ED50 (the source's name)) [µg/mL] | LC50 [4] [ppm] | EC50 ([5]; Mus musculus, read-out: ED50 (the source's name)) [µg/mL] | ED50 [1] [×10⁻⁵ ug/ml] | EC50 [6] [µg/mL] | ED50 [2] [×10⁻⁵ ug/ml] | ED50 [3] [×10⁻⁵ ug/ml] | T/C [7] [%] | inhibition (INH) [8] [%] | ED50 [5] [×10⁻⁴ ug/ml] |
| --- | --- | --- | --- | --- | --- | --- | --- | --- | --- | --- | --- | --- |
| CC[C@H]1CN2CCc3cc(OC)c(OC)cc3[C@@H]2C[C@@H]1CC1=NCCc2cc(O)c(OC)cc21 [PSYCHOTRINE] | > 10 | > 10 | > 10 | > 1000 | 1 (≈ 2.15 µM) |  |  |  |  |  |  |  |
| CC[C@H]1CN2CCc3cc(OC)c(OC)cc3[C@@H]2C[C@@H]1C[C@H]1NCCc2c1[nH]c1ccc(O)cc21 [TUBULOSINE] |  |  |  | 0.02 |  | <1 | 0.01 (≈ 0.021 µM) | <1 | <1 | 186 | 81 | 3.8 |
